In general, IC50 refers to the concentration needed to halve the response being measured. Usually CC50 stands for the concentration that lowers cell viability or growth by half.

The results in this text go back to ChEMBL document CHEMBL5131467, “Multivalent peptide dendrimers inhibit the fusion of viral-cellular membranes and the cellular NF-κB signaling pathway” (Eur J Med Chem, 2022).

Where a SMILES comes first, the peptide text is derived from it. Bridges are numbered along the chain shown (N, C = ends). Roman numbers before positions name the chains, in order. Side-chain parts run from the residue outwards. [ ]: non-standard residue; d: D form. The star is where a group is joined. ξ: configuration not given here. Phenylacetyl(4-Ph) = O=C(Cc1ccc(-c2ccccc2)cc1)*; Fmoc = O=C(OCC1c2ccccc2-c2ccccc21)*; Palmitoyl = CCCCCCCCCCCCCCCC(=O)*; ξW = NC(Cc1c[nH]c2ccccc12)C(=O)O; Lauroyl = CCCCCCCCCCCC(=O)*; Nonanoyl = CCCCCCCCC(=O)*; ξK = NCCCCC(N)C(=O)O

The test system of data set [1] is Influenza A virus. Briefly: Antiviral activity against Influenza A virus (A/Puerto Rico/8/1934(H1N1)) infected in MDCK cells assessed as reduction in virus induced cytopathic effect pretreated with compound incubated for 1 hrs by MTT assay. The data set is classed as functional, organism-based.
Data set [2] concerns Influenza A virus. The data set can be described thus: Antiviral activity against Influenza A virus (A/Puerto Rico/8/1934(H1N1)) infected in MDCK cells assessed as reduction in virus induced cytopathic effect pre-treated with virus followed by cell infection for 1 hr by MTT assay. The data set is classed as functional, organism-based. A general note: Protection from cytopathic effect is a common read-out in antiviral testing.

Data set [3] has as its system Influenza A virus. The data set can be described thus: Antiviral activity against Influenza A virus (A/Puerto Rico/8/1934(H1N1)) infected in MDCK cells assessed as reduction in virus induced cytopathic effect during infection incubated for 1 hr by MTT assay. The format is functional, organism-based.
Data set [4] deals with Influenza A virus. The data set can be described thus: Antiviral activity against Influenza A virus (A/Puerto Rico/8/1934(H1N1)) infected in MDCK cells assessed as reduction in virus induced cytopathic effect after infection incubated for 1 hr by MTT assay. The data set is classed as functional, organism-based.
A short description of data set [5]: Cytotoxicity against MDCK cells incubated for 1 hr by MTT assay. The format is toxicity, cell-based, Canis lupus familiaris. As to conditions: dog. (Tetrazolium dyes change colour on reduction, which living cells bring about.)
Data set [6] is described as follows: Selectivity index, ratio of CC50 for MDCK cells to IC50 antiviral activity against Influenza A virus (A/Puerto Rico/8/1934(H1N1)) infected in MDCK cells assessed as reduction in virus induced cytopathic effect pre-treated with virus. The data set is classed as toxicity, cell-based. The following applies: dog, read-out: Selectivity Index.

For `NCCCC[C@H](NC(=O)OCC1c2ccccc2-c2ccccc21)C(=O)N[C@@H](Cc1c[nH]c2ccccc12)C(=O)N[C@@H](CCCCN)C(=O)N[C@@H](CCCCN)C(=O)NCCCC[C@H](NC(=O)[C@H](CCCCN)NC(=O)[C@H](CCCCN)NC(=O)[C@H](Cc1c[nH]c2ccccc12)NC(=O)[C@H](CCCCN)NC(=O)OCC1c2ccccc2-c2ccccc21)C(=O)NCCCC[C@H](NC(=O)[C@H](CCCCNC(=O)[C@H](CCCCN)NC(=O)[C@H](CCCCN)NC(=O)[C@H](Cc1c[nH]c2ccccc12)NC(=O)[C@H](CCCCN)NC(=O)OCC1c2ccccc2-c2ccccc21)NC(=O)[C@H](CCCCN)NC(=O)[C@H](CCCCN)NC(=O)[C@H](Cc1c[nH]c2ccccc12)NC(=O)[C@H](CCCCN)NC(=O)OCC1c2ccccc2-c2ccccc21)C(=O)NCC(=O)O` (I: Fmoc-KWKKK([Lys-Lys-Trp-Lys-Fmoc])KG-OH / II: Fmoc-KWKKK([Lys-Lys-Trp-Lys-Fmoc]); amide I:6-II:C), the half-inhibitory concentration (IC50) worked out at 470 nM in the data set with Influenza A virus [1], 620 nM with Influenza A virus [2], 1160 nM with Influenza A virus [3] and 5000 nM in the data set with Influenza A virus [4]. In data set [5], this compound registered a CC50 at 1 h of 11700 nM. In addition, the selectivity ratio in data set [6] is 18.8.
Turning to `NCCCC[C@H](NC(=O)[C@H](Cc1c[nH]c2ccccc12)NC(=O)[C@H](CCCCN)NC(=O)[C@@H](N)CCCCN)C(=O)NCCCC[C@H](NC(=O)[C@H](CCCCN)NC(=O)[C@H](Cc1c[nH]c2ccccc12)NC(=O)[C@H](CCCCN)NC(=O)[C@@H](N)CCCCN)C(=O)NCCCC[C@H](NC(=O)[C@H](CCCCNC(=O)[C@H](CCCCN)NC(=O)[C@H](Cc1c[nH]c2ccccc12)NC(=O)[C@H](CCCCN)NC(=O)[C@@H](N)CCCCN)NC(=O)[C@H](CCCCN)NC(=O)[C@H](Cc1c[nH]c2ccccc12)NC(=O)[C@H](CCCCN)NC(=O)[C@@H](N)CCCCN)C(=O)NCC(=O)O` (I: H-KKWKK([Lys-Trp-Lys-Lys])KG-OH / II: H-KKWKK([Lys-Trp-Lys-Lys]); amide I:6-II:C), the IC50 in the data set with Influenza A virus [1] was above 10000 nM; with Influenza A virus [2], above 5000 nM; in the data set on Influenza A virus [3] it was above 5000 nM. The same compound registered a CC50 at 1 h in data set [5] of 150000 nM.
As for `CCCCCCCCCCCC(=O)N[C@@H](CCCCN)C(=O)N[C@@H](CCCCN)C(=O)N[C@@H](Cc1c[nH]c2ccccc12)C(=O)N[C@@H](CCCCN)C(=O)NCCCC[C@H](NC(=O)[C@H](CCCCN)NC(=O)[C@H](Cc1c[nH]c2ccccc12)NC(=O)[C@H](CCCCN)NC(=O)[C@H](CCCCN)NC(=O)CCCCCCCCCCC)C(=O)NCCCC[C@H](NC(=O)[C@H](CCCCNC(=O)[C@H](CCCCN)NC(=O)[C@H](Cc1c[nH]c2ccccc12)NC(=O)[C@H](CCCCN)NC(=O)[C@H](CCCCN)NC(=O)CCCCCCCCCCC)NC(=O)[C@H](CCCCN)NC(=O)[C@H](Cc1c[nH]c2ccccc12)NC(=O)[C@H](CCCCN)NC(=O)[C@H](CCCCN)NC(=O)CCCCCCCCCCC)C(=O)NCC(=O)O` (I: Lauroyl-KKWKK([Lys-Trp-Lys-Lys-Lauroyl])KG-OH / II: Lauroyl-KKWKK([Lys-Trp-Lys-Lys-Lauroyl]); amide I:6-II:C), the IC50 with Influenza A virus [1] is 310 nM; with Influenza A virus [2], 280 nM; in the data set with Influenza A virus [3], 430 nM; in the data set with Influenza A virus [4] it was above 5000 nM. This compound yielded a 50% cytotoxic concentration (CC50) at 1 h in data set [5] of 5470 nM. In addition, the selectivity ratio in data set [6] amounted to 19.7.
Take `CCCCCCCCCCCC(=O)N[C@@H](CCCCN)C(=O)N[C@@H](Cc1c[nH]c2ccccc12)C(=O)N[C@@H](CCCCN)C(=O)N[C@@H](CCCCN)C(=O)NCCCC[C@H](NC(=O)[C@H](CCCCN)NC(=O)[C@H](CCCCN)NC(=O)[C@H](Cc1c[nH]c2ccccc12)NC(=O)[C@H](CCCCN)NC(=O)CCCCCCCCCCC)C(=O)NCCCC[C@H](NC(=O)[C@H](CCCCNC(=O)[C@H](CCCCN)NC(=O)[C@H](CCCCN)NC(=O)[C@H](Cc1c[nH]c2ccccc12)NC(=O)[C@H](CCCCN)NC(=O)CCCCCCCCCCC)NC(=O)[C@H](CCCCN)NC(=O)[C@H](CCCCN)NC(=O)[C@H](Cc1c[nH]c2ccccc12)NC(=O)[C@H](CCCCN)NC(=O)CCCCCCCCCCC)C(=O)NCC(=O)O` (I: Lauroyl-KWKKK([Lys-Lys-Trp-Lys-Lauroyl])KG-OH / II: Lauroyl-KWKKK([Lys-Lys-Trp-Lys-Lauroyl]); amide I:6-II:C): the concentration for half-maximal inhibition (IC50) in the data set on Influenza A virus [1] is 380 nM; in the data set on Influenza A virus [2], 340 nM; in the data set with Influenza A virus [3] it was 170 nM; in the data set on Influenza A virus [4] it was above 5000 nM. The same compound had a CC50 at 1 h in data set [5] of 1880 nM. Besides, in data set [6], the selectivity ratio was determined as 5.5.
Take `CCCCCCCCC(=O)NC(CCCCN)C(=O)NC(Cc1c[nH]c2ccccc12)C(=O)NC(CCCCN)C(=O)NC(CCCCN)C(=O)N[C@@H](CCCCNC(=O)[C@H](CCCCN)NC(=O)[C@H](CCCCN)NC(=O)[C@H](Cc1c[nH]c2ccccc12)NC(=O)[C@H](CCCCN)NC(=O)CCCCCCCC)C(=O)NCCCC[C@H](NC(=O)[C@H](CCCCNC(=O)[C@H](CCCCN)NC(=O)[C@H](CCCCN)NC(=O)[C@H](Cc1c[nH]c2ccccc12)NC(=O)[C@H](CCCCN)NC(=O)CCCCCCCC)NC(=O)[C@H](CCCCN)NC(=O)[C@H](CCCCN)NC(=O)[C@H](Cc1c[nH]c2ccccc12)NC(=O)[C@H](CCCCN)NC(=O)CCCCCCCC)C(=O)NCC(=O)O` (stereo partly drawn) (I: Nonanoyl-KWKKK([Lys-Lys-Trp-Lys-Nonanoyl])KG-OH / II: Nonanoyl-[ξK][ξW][ξK][ξK]K([Lys-Lys-Trp-Lys-Nonanoyl]); amide I:6-II:C): the half-maximal inhibitory concentration (IC50) in the data set on Influenza A virus [1] was 580 nM; in the data set on Influenza A virus [2], 770 nM; in the data set on Influenza A virus [3], 1480 nM; in the data set on Influenza A virus [4], above 5000 nM. This compound also had a CC50 at 1 h in data set [5] of 3480 nM. In addition, the selectivity ratio in data set [6] is 4.5.
As to `CCCCCCCCCCCCCCCC(=O)N[C@@H](CCCCN)C(=O)N[C@@H](CCCCN)C(=O)N[C@@H](Cc1c[nH]c2ccccc12)C(=O)N[C@@H](CCCCN)C(=O)NCCCC[C@H](NC(=O)[C@H](CCCCN)NC(=O)[C@H](Cc1c[nH]c2ccccc12)NC(=O)[C@H](CCCCN)NC(=O)[C@H](CCCCN)NC(=O)CCCCCCCCCCCCCCC)C(=O)NCCCC[C@H](NC(=O)[C@H](CCCCNC(=O)[C@H](CCCCN)NC(=O)[C@H](Cc1c[nH]c2ccccc12)NC(=O)[C@H](CCCCN)NC(=O)[C@H](CCCCN)NC(=O)CCCCCCCCCCCCCCC)NC(=O)[C@H](CCCCN)NC(=O)[C@H](Cc1c[nH]c2ccccc12)NC(=O)[C@H](CCCCN)NC(=O)[C@H](CCCCN)NC(=O)CCCCCCCCCCCCCCC)C(=O)NCC(=O)O` (I: Palmitoyl-KKWKK([Lys-Trp-Lys-Lys-Palmitoyl])KG-OH / II: Palmitoyl-KKWKK([Lys-Trp-Lys-Lys-Palmitoyl]); amide I:6-II:C), the IC50 with Influenza A virus [1] was 140 nM; with Influenza A virus [2] it was 100 nM; in the data set with Influenza A virus [3] it was 130 nM; in the data set with Influenza A virus [4], above 5000 nM. This compound also returned a cytotoxic concentration (CC50) at 1 h in data set [5] of 1580 nM.
Take `CCCCCCCCCCCCCCCC(=O)N[C@@H](CCCCN)C(=O)N[C@@H](Cc1c[nH]c2ccccc12)C(=O)N[C@@H](CCCCN)C(=O)N[C@@H](CCCCN)C(=O)NCCCC[C@H](NC(=O)[C@H](CCCCN)NC(=O)[C@H](CCCCN)NC(=O)[C@H](Cc1c[nH]c2ccccc12)NC(=O)[C@H](CCCCN)NC(=O)CCCCCCCCCCCCCCC)C(=O)NCCCC[C@H](NC(=O)[C@H](CCCCNC(=O)[C@H](CCCCN)NC(=O)[C@H](CCCCN)NC(=O)[C@H](Cc1c[nH]c2ccccc12)NC(=O)[C@H](CCCCN)NC(=O)CCCCCCCCCCCCCCC)NC(=O)[C@H](CCCCN)NC(=O)[C@H](CCCCN)NC(=O)[C@H](Cc1c[nH]c2ccccc12)NC(=O)[C@H](CCCCN)NC(=O)CCCCCCCCCCCCCCC)C(=O)NCC(=O)O` (I: Palmitoyl-KWKKK([Lys-Lys-Trp-Lys-Palmitoyl])KG-OH / II: Palmitoyl-KWKKK([Lys-Lys-Trp-Lys-Palmitoyl]); amide I:6-II:C): the IC50 with Influenza A virus [1] was 170 nM; in the data set on Influenza A virus [2], 190 nM; in the data set with Influenza A virus [3], 170 nM; in the data set on Influenza A virus [4], above 5000 nM. Also, in data set [5], it took 670 nM to reach half-maximal cytotoxicity (CC50 at 1 h).
Regarding `NCCCC[C@H](NC(=O)Cc1ccc(-c2ccccc2)cc1)C(=O)N[C@@H](CCCCN)C(=O)N[C@@H](Cc1c[nH]c2ccccc12)C(=O)N[C@@H](CCCCN)C(=O)NCCCC[C@H](NC(=O)[C@H](CCCCN)NC(=O)[C@H](Cc1c[nH]c2ccccc12)NC(=O)[C@H](CCCCN)NC(=O)[C@H](CCCCN)NC(=O)Cc1ccc(-c2ccccc2)cc1)C(=O)NCCCC[C@H](NC(=O)[C@H](CCCCNC(=O)[C@H](CCCCN)NC(=O)[C@H](Cc1c[nH]c2ccccc12)NC(=O)[C@H](CCCCN)NC(=O)[C@H](CCCCN)NC(=O)Cc1ccc(-c2ccccc2)cc1)NC(=O)[C@H](CCCCN)NC(=O)[C@H](Cc1c[nH]c2ccccc12)NC(=O)[C@H](CCCCN)NC(=O)[C@H](CCCCN)NC(=O)Cc1ccc(-c2ccccc2)cc1)C(=O)NCC(=O)O` (I: {Phenylacetyl(4-Ph)}-KKWKK([Lys-Trp-Lys-Lys-Phenylacetyl(4-Ph)])KG-OH / II: {Phenylacetyl(4-Ph)}-KKWKK([Lys-Trp-Lys-Lys-Phenylacetyl(4-Ph)]); amide I:6-II:C), the half-inhibitory concentration (IC50) with Influenza A virus [1] is 170 nM; in the data set on Influenza A virus [2], 190 nM; in the data set with Influenza A virus [3], 200 nM. For the same compound, in data set [5], the CC50 at 1 h came out at 19300 nM. Also, the selectivity ratio in data set [6] came out at 103.
